This passage reports TGI and GI50 results from PubChem BioAssay (NCI).

Several values for one entry are separate records, joined by “and”; a condition that tells them apart may be missing. Equal values may be shown once.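 Method: 48-hour compound exposure of cells in 96-well plates, five concentrations, linear interpolation of endpoints. GI50 = concentration required for 50% inhibition of growth. TGI marks complete inhibition of growth.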

Test systems include COLO 205 colon; DU-145 prostate; HOP-62 NSCLC; HOP-92 NSCLC; KM12 colon; MOLT-4 leukemia; SK-MEL-2 melanoma; SN12C renal; SNB-75 CNS; T-47D breast.
Common to all, as to assay: NCI anticancer screen, dose series, 48 h

Regarding `CCC/C=C/C=C/C(=O)OC1/C(=C/C(=O)OC)CC2CC(C(C)O)OC(=O)CC(O)CC3CC(OC(C)=O)C(C)(C)C(O)(CC4C/C(=C/C(=O)OC)CC(/C=C/C(C)(C)C1(O)O2)O4)O3` (centres undefined), the TGI is 6.88 µM and 11 µM and > 12.5 µM in the experiment on COLO 205 colon; above 12.5 µM in the experiment with DU-145 prostate; 11 µM and > 12.5 µM in the experiment on HOP-62 NSCLC; 10.9 µM and 11 µM and > 12.5 µM in the experiment with HOP-92 NSCLC; > 10.9 µM and 9.07 µM and > 12.5 µM with KM12 colon; 10.6 µM and 10.5 µM and > 12.5 µM with MOLT-4 leukemia. Further, the TGI in the experiment on SK-MEL-2 melanoma is > 10.9 µM and 11 µM and > 12.5 µM; with SN12C renal it was > 10.9 µM and 11 µM and > 12.5 µM; in the experiment on SNB-75 CNS it was 10.9 µM and 9.84 µM and > 12.5 µM; in the experiment with T-47D breast, 11 µM and > 12.5 µM. Also, the GI50 was above 11 µM in the experiment with DU-145 prostate; 10.9 µM and > 12.5 µM with HOP-62 NSCLC; 7.79 µM and 5.61 µM and 4.84 µM in the experiment on HOP-92 NSCLC; > 10.9 µM and 6.75 µM and > 12.5 µM in the experiment on KM12 colon; 5.48 µM and 3.26 µM and > 12.5 µM with MOLT-4 leukemia; > 10.9 µM and 5.77 µM and > 12.5 µM with SK-MEL-2 melanoma. Besides, the GI50 in the experiment on SN12C renal was > 10.9 µM and 7.93 µM and > 12.5 µM; in the experiment with SNB-75 CNS, 10.3 µM and 2.85 µM and > 12.5 µM; with T-47D breast, above 12.5 µM.
In the case of `COc1ccc2[nH]c3c(C)c4c(c(C)c3c2c1)CN(C)C=C4`, the TGI worked out at 10.3 µM with COLO 205 colon; 33.8 µM in the experiment with DU-145 prostate; 3.53 µM in the experiment with HOP-62 NSCLC; 19.5 µM with HOP-92 NSCLC; 10.6 µM in the experiment with KM12 colon; 37.7 µM in the experiment on MOLT-4 leukemia. Also, the TGI in the experiment on SK-MEL-2 melanoma was determined as 9.8 µM; in the experiment with SN12C renal it was 0.985 µM; in the experiment on SNB-75 CNS, 0.698 µM; in the experiment with T-47D breast it was 14.9 µM.
Consider `O=C1OC(c2ccc([N+](=O)[O-])cc2)=N/C1=C\c1ccc(Cl)cc1`, for which the TGI with COLO 205 colon, in the experiment on DU-145 prostate, in the experiment with HOP-62 NSCLC, in the experiment with HOP-92 NSCLC, with KM12 colon and with MOLT-4 leukemia was above 100 µM throughout. The TGI in the experiment on SK-MEL-2 melanoma, in the experiment on SN12C renal, in the experiment with SNB-75 CNS and in the experiment on T-47D breast was above 100 µM in each case.
As for `O=C(O)CCCN1C(=O)/C(=C/C(Cl)=C/c2ccccc2)SC1=S`, the GI50 with COLO 205 colon was 1.9 µM; in the experiment on DU-145 prostate it was 1.79 µM; in the experiment with HOP-62 NSCLC, 2.94 µM; with HOP-92 NSCLC it was 3.17 µM; in the experiment with KM12 colon it was 1.47 µM; in the experiment with MOLT-4 leukemia, 0.591 µM. The GI50 was 2.47 µM in the experiment with SK-MEL-2 melanoma, 2.05 µM with SN12C renal, 1.23 µM in the experiment with SNB-75 CNS and 1.89 µM with T-47D breast. Moreover, the TGI in the experiment on COLO 205 colon was determined as 4.49 µM; in the experiment with DU-145 prostate it was 4.39 µM; in the experiment on HOP-62 NSCLC it was 10.5 µM; with HOP-92 NSCLC it was 9.78 µM; in the experiment with KM12 colon, 3.54 µM; with MOLT-4 leukemia, 11.9 µM. Moreover, the TGI is 7.61 µM in the experiment on SK-MEL-2 melanoma, 6.79 µM in the experiment with SN12C renal, 4.33 µM in the experiment on SNB-75 CNS and 5.38 µM with T-47D breast.
As to `O=C(CSSCC(=O)c1ccc(Cl)cc1)c1ccc(Cl)cc1`, the GI50 in the experiment on COLO 205 colon was 14.2 µM; in the experiment with DU-145 prostate, 4.77 µM; with HOP-62 NSCLC it was 5.03 µM; in the experiment on HOP-92 NSCLC, 5.37 µM; in the experiment on KM12 colon, 3.82 µM; in the experiment with MOLT-4 leukemia, 3.28 µM. The GI50 is 3.8 µM in the experiment with SK-MEL-2 melanoma, 3.7 µM in the experiment on SN12C renal, 6.62 µM in the experiment with SNB-75 CNS and 8.66 µM in the experiment on T-47D breast. Besides, the TGI with COLO 205 colon was 29.8 µM; in the experiment on DU-145 prostate, 91.3 µM; in the experiment on HOP-62 NSCLC it was 21.7 µM; with HOP-92 NSCLC it was 19.4 µM; with KM12 colon, 24.4 µM; in the experiment with MOLT-4 leukemia, above 100 µM. Also, the TGI stood at 15.1 µM in the experiment on SK-MEL-2 melanoma, 36.4 µM in the experiment on SN12C renal, 21.4 µM in the experiment on SNB-75 CNS and 45.2 µM in the experiment with T-47D breast.
With `COc1ccc(C2=C(c3ccc(OC)cc3)C(=O)OC2)cc1`, the GI50 in the experiment with COLO 205 colon was 1.38 µM; with DU-145 prostate, 2.38 µM; in the experiment with HOP-62 NSCLC, 2.25 µM; in the experiment on HOP-92 NSCLC, 7.45 µM; with KM12 colon it was 0.555 µM; with MOLT-4 leukemia, 1.29 µM. The GI50 with SK-MEL-2 melanoma is 1.48 µM; in the experiment on SN12C renal it was 7.68 µM; in the experiment on SNB-75 CNS, 3.16 µM; with T-47D breast, 8.89 µM. In addition, the TGI in the experiment on COLO 205 colon was above 100 µM; with DU-145 prostate, above 46.6 µM; in the experiment on HOP-62 NSCLC, 24.6 µM; in the experiment with HOP-92 NSCLC it was 51.9 µM; with KM12 colon it was above 37.7 µM; in the experiment on MOLT-4 leukemia it was 23.8 µM. In addition, the TGI with SK-MEL-2 melanoma was above 48.6 µM; in the experiment on SN12C renal, 42.2 µM; with SNB-75 CNS, above 100 µM; in the experiment on T-47D breast, above 65.6 µM.
